For 2 compounds, MIC results are on record in patent US5488060A, “Substituted thiadiazoles, compositions containing them and their use as antimicrobial and marine antifouling agents” (The Dow Chemical Company, priority 1994, dated 1996).

What all share (type): cell-based
For assay [1], the system named is Trichoderma viride (Tv). The assay can be described thus: Minimum inhibitory concentration (MIC) in malt yeast agar, Trichoderma viride. An outline of the steps:
(§1)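 Plates of pH 5.5 malt yeast agar carried test compound dispersed from a one percent acetone–water solution, final 500 to zero ppm. After diluted slant-culture suspensions were applied, plates were kept at 30 °C and examined at 72 h for fungi, 48 h for yeast.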

The subject of assay [2] is Fusarium oxysporum (Fo). Description: Minimum inhibitory concentration (MIC) in malt yeast agar, Fusarium oxysporum. An outline of the steps:
as §1

The test system of assay [3] is Salmonella choleraesuis (Se). The assay can be described thus: Minimum inhibitory concentration (MIC) in nutrient agar, Salmonella choleraesuis. The settings on record: Salmonella enterica. An outline of the steps: (§2)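 Bacteria were grown 24 h at 30° C in nutrient broth with shaking, then diluted to 10^8 CFU/mL. These suspensions were stamped onto dried nutrient agar plates, neutral (pH 6.8) and alkaline (pH 8.2), that held compound at final 500–1.0 ppm. The plates were incubated 48 h at 30° C.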

Assay [4] concerns Bacillus subtilis (Bs). The assay can be described thus: Minimum inhibitory concentration (MIC) in nutrient agar, Bacillus subtilis. Summed up: as §2
Assay [5] has as its system Pseudomonas aeruginosa (PRD-10). The assay can be described thus: Minimum inhibitory concentration (MIC) in nutrient agar, Pseudomonas aeruginosa PRD-10. Summed up:
as §2

Assay [6] deals with Staphylococcus aureus (Sa). Description: Minimum inhibitory concentration (MIC) in nutrient agar, Staphylococcus aureus. An outline of the steps: as §2
Assay [7] relates to Pseudomonas aeruginosa (Pa). Description: Minimum inhibitory concentration (MIC) in nutrient agar, Pseudomonas aeruginosa. The settings on record: 30° C., 48 hours, read-out: Minimum Inhibitory Concentration, Pa. Summed up:
as §2

The subject of assay [8] is Aureobasidium pullulan (Ap). The assay can be described thus: Minimum inhibitory concentration (MIC) in malt yeast agar, Aureobasidium pullulan. An outline of the steps:
as §1

For assay [9], the system named is Candida albicans (Ca). Description: Minimum inhibitory concentration (MIC) in malt yeast agar, Candida albicans. Summed up:
(§3)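 Malt yeast agar pH 5.5 + cpd (from 1% soln in acetone/water) at final 500–zero ppm, poured at 48 °C, dried 24 h. Inoculum: 7-day 30 °C slants suspended in saline/octylphenoxy polyethoxy ethanol, diluted 1:9, replicator-spotted. Incubated 30 °C; read 48 h yeast, 72 h fungi.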

Assay [10] deals with Saccharomyces cerevisiae (Sc). The assay can be described thus: Minimum inhibitory concentration (MIC) in malt yeast agar, Saccharomyces cerevisiae. An outline of the steps:
as §3

For assay [11], the system named is Enterobacter aerogenes (Ea). The assay can be described thus: Minimum inhibitory concentration (MIC) in nutrient agar, Enterobacter aerogenes. The settings on record: Klebsiella aerogenes. Summed up: as §2
In assay [12] the test system is Escherichia coli (Ec). Description: Minimum inhibitory concentration (MIC) in nutrient agar, Escherichia coli. An outline of the steps:
as §2

For assay [13], the system named is Proteus vulgaris (Pv). Description: Minimum inhibitory concentration (MIC) in nutrient agar, Proteus vulgaris. Summed up: as §2
Where [14] appears, read: pH 6.8, nutrient agar, 30° C., 48 hours, read-out: Minimum Inhibitory Concentration, SC.
[15] abbreviates: 48 h, pH 8.2, read-out: Minimum Inhibitory Concentration, Bs.
The mark [16] stands for this setting: pH 6.8, nutrient agar, 30° C., 48 hours, read-out: Minimum Inhibitory Concentration, Bs.
Setting [17] is: 48 h, pH 8.2, read-out: Minimum Inhibitory Concentration, PRD.
Where [18] appears, read: pH 6.8, nutrient agar, 30° C., 48 hours, read-out: Minimum Inhibitory Concentration, Sa.
[19] abbreviates: 48 h, pH 8.2, read-out: Minimum Inhibitory Concentration, Ea.
Where [20] appears, read: pH 6.8, nutrient agar, 30° C., 48 hours, read-out: Minimum Inhibitory Concentration, Pv.

Each structure is given as a SMILES string. ≈ marks a conversion by molar mass, not a printed value. Where two headings read alike, the source gives them in different places.

Take `N#CSc1nsnc1-c1ccccc1` [Example I, 4-Phenyl-3-thiocyanato-1,2,5-thiadiazole]: the MIC is 2.5 µg/mL (≈ 11.4 µM) in assay [1] (pH 5.5, malt yeast agar, 30° C., 72 hours for fungi, read-out: Minimum Inhibitory Concentration, Tv); 2.5 µg/mL (≈ 11.4 µM) in [2] (pH 5.5, malt yeast agar, 30° C., 72 hours for fungi, read-out: Minimum Inhibitory Concentration, Fo); over 500 µg/mL in assay [3] (48 h, pH 8.2, read-out: Minimum Inhibitory Concentration, SC); 50 µg/mL (≈ 228 µM) in assay [3] (setting [14]); 250 µg/mL (≈ 1140 µM) in [4] (setting [15]); under 10 µg/mL in assay [4] (setting [16]). Further, the MIC was over 500 µg/mL in assay [5] (48 h, pH 6.8, read-out: Minimum Inhibitory Concentration, PRD); over 500 µg/mL in assay [5] (setting [17]); 500 µg/mL (≈ 2280 µM) in [6] (48 h, pH 8.2, read-out: Minimum Inhibitory Concentration, Sa); 25 µg/mL (≈ 114 µM) in [6] (setting [18]); over 500 µg/mL in assay [7] (pH 6.8, nutrient agar); over 500 µg/mL in [7] (pH 8.2, nutrient agar). Besides, the MIC in [8] (pH 5.5, malt yeast agar, 30° C., read-out: Minimum Inhibitory Concentration, Ap) was under 1 µg/mL; in assay [9] (48 h, pH 5.5, read-out: Minimum Inhibitory Concentration, Ca), 2.5 µg/mL (≈ 11.4 µM); in [10] (pH 5.5, malt yeast agar, 30° C., 48 hours for yeast, read-out: Minimum Inhibitory Concentration, SC), under 1 µg/mL; in assay [11] (setting [19]) it was 500 µg/mL (≈ 2280 µM); in assay [11] (pH 6.8, nutrient agar, 30° C., 48 hours, read-out: Minimum Inhibitory Concentration, Ea), 100 µg/mL (≈ 456 µM); in assay [12] (48 h, pH 6.8, read-out: Minimum Inhibitory Concentration, Ec), 50 µg/mL (≈ 228 µM). The MIC is over 500 µg/mL in assay [12] (48 h, pH 8.2, read-out: Minimum Inhibitory Concentration, Ec); 500 µg/mL (≈ 2280 µM) in assay [13] (48 h, pH 8.2, read-out: Minimum Inhibitory Concentration, Pv); 50 µg/mL (≈ 228 µM) in [13] (setting [20]).

Regarding `N#CSCSc1nsnc1-c1ccccc1` [Example XVI, 4-Phenyl-3-thiocyanato-methylthio-1,2,5-thiadiazole], the MIC in assay [1] (72 h, pH 5.5, read-out: Minimum Inhibitory Concentration, Tv) was 10 µg/mL (≈ 37.7 µM); in assay [2] (72 h, pH 5.5, read-out: Minimum Inhibitory Concentration, Fo) it was 5 µg/mL (≈ 18.8 µM); in [3] (setting [14]) it was 25 µg/mL (≈ 94.2 µM); in assay [3] (pH 8.2, nutrient agar, 30° C., 48 hours, read-out: Minimum Inhibitory Concentration, SC), 250 µg/mL (≈ 942 µM); in assay [4] (setting [15]), 250 µg/mL (≈ 942 µM); in assay [4] (setting [16]), under 10 µg/mL. Besides, the MIC in assay [5] (setting [17]) came out at 50 µg/mL (≈ 188 µM); in assay [5] (pH 6.8, nutrient agar, 30° C., 48 hours, read-out: Minimum Inhibitory Concentration, PRD), 25 µg/mL (≈ 94.2 µM); in [6] (setting [18]), 25 µg/mL (≈ 94.2 µM); in assay [6] (pH 8.2, nutrient agar, 30° C., 48 hours, read-out: Minimum Inhibitory Concentration, Sa) it was 50 µg/mL (≈ 188 µM); in [7] (pH 8.2, nutrient agar) it was 250 µg/mL (≈ 942 µM); in assay [8] (pH 5.5, read-out: Minimum Inhibitory Concentration, Ap), 2.5 µg/mL (≈ 9.42 µM). Also, the MIC in assay [9] (pH 5.5, malt yeast agar, 30° C., 48 hours for yeast, read-out: Minimum Inhibitory Concentration, Ca) was 5 µg/mL (≈ 18.8 µM); in assay [10] (48 h, pH 5.5, read-out: Minimum Inhibitory Concentration, SC), 2.5 µg/mL (≈ 9.42 µM); in [11] (48 h, pH 6.8, read-out: Minimum Inhibitory Concentration, Ea) it was 50 µg/mL (≈ 188 µM); in assay [11] (setting [19]), 500 µg/mL (≈ 1880 µM); in [12] (pH 6.8, nutrient agar, 30° C., 48 hours, read-out: Minimum Inhibitory Concentration, Ec), 25 µg/mL (≈ 94.2 µM); in [12] (pH 8.2, nutrient agar, 30° C., 48 hours, read-out: Minimum Inhibitory Concentration, Ec), 250 µg/mL (≈ 942 µM). For the same compound, the MIC was 50 µg/mL (≈ 188 µM) in [13] (setting [20]) and 250 µg/mL (≈ 942 µM) in [13] (pH 8.2, nutrient agar, 30° C., 48 hours, read-out: Minimum Inhibitory Concentration, Pv).
